Like-named read-outs stand apart in the source and are kept apart here.
How the values were obtained:
Assay type in all cases: binding, HIV-1
rLTR4 RNA G4 = experiment: Native ESI-MS, rLTR4; settings: 10 μM RNA, 20 μM ligand, 100 mM ammonium acetate
Experimental: Oligonucleotides were purchased lyophilized and RP-cartridge purified from Eurogentec (Kanaka Eurogentec, Seraing, Belgium), then buffer exchanged with ammonium acetate (5 M; Sigma-Aldrich, Saint-Quentin-Fallavier, France) using Amicon Ultra (3 K cut-off; Merck Millipore, Cork, Ireland). The concentrations of the initial stock solutions of DNA/RNA (∼1 mM) were measured by UV absorbance at 260 nm. Sample solutions were prepared by diluting the appropriate volume of oligonucleotide stock solutions to reach 10 μM of DNA/RNA and 20 μM of ligand, in 100 mM ammonium acetate. The solutions were incubated for 16 h at 4 °C before analysis by mass spectrometry. […] These parameters ensured a good signal intensity without disrupting noncovalent complexes, which was verified using d[G4T4G4]2 as a control. The presented spectra of all DNA/RNA used in this work (Fig. 5, S9 and S10) result from 8 min accumulations. The abundance of each species, M, M + 1L, M + 2L and M + 3L complexes, where M is a monomer oligonucleotide and L is a ligand, was determined from their peak area signals (A), from the sum of the −4, −5 and −6 charge states for DNA and from the sum of the −5, −6 and −7 charge states for RNA, assuming that their response factors are equal. The molar concentrations were then calculated knowing the total amount of oligonucleotide [M]tot: [drawing 1] [drawing 2] [drawing 3] [drawing 4] The concentration of the free ligand, [L]free, was determined from its total concentration [L]tot:[L]free = [L]tot − [M + 1L] − 2[M + 2L] − 3[M + 3L]Apparent consecutive dissociation constants (Kd1, Kd2 and Kd3) were calculated by using the following equations: [drawing 5] [drawing 6] [drawing 7]
We further analysed the formation of the DBA/G4 complexes by native electrospray ionization mass spectrometry (ESI-MS). We initially attempted to analyze DBA binding to the primary G4 targets from HIV-1 (HIVpro1, HIVpro2, LTR4 and rLTR4 RNA). […] These sequences span the major G4 topological classes and provide a representative assessment of DBA binding across diverse G4 architectures. We also included two DNA duplex controls (DK100 and DK66) to evaluate binding selectivity. This ESI-MS approach enables direct determination of binding stoichiometry, quantification of each species in solution, and calculation of dissociation constants (Kd) from the relative abundances of free and bound forms.[88,97]
In the ESI-MS conditions, the rLTR4 G4 (10 μM) forms a dimeric structure. […] Among the six DNA and RNA tested here (Fig. 5B, S9 and S10) only rLTR4 presented 1 : 3 G4/DBA complexes. In all cases but one, the 1 : 1 stoichiometry represents the major species in solution while for rLTR4 it is the 1 : 2 (green). […] For TG4T tetramolecular G4 or G4T4G4 bimolecular G4 only 1 : 1 and 1 : 2 complexes were detected (Fig. S9A and S10A). […] The weakest binding was obtained for the G4T4G4 antiparallel G4 and Htel sequence with Kd1s ranging from 11 μM for to 500 μM (Table 2).

[1] = system: rLTR4-3′Cy5 (parallel RNA G4); experiment: Ligand-induced fluorescence quenching assay (FQA), rLTR4-3′Cy5
Experimental: (§1) Cy5 labelled oligonucleotides were purchased lyophilized and RP-cartridge purified from Eurogentec (Kanaka Eurogentec, Seraing, Belgium). The ligand-induced fluorescence quenching assay was conducted as previously described.[47] A Stratagene Mx3005P instrument was used to carry out the assay in 96-well plates. The filters for excitation and emission were set at 635 nm and 665 nm, respectively. The gain was used at 8×. The labeled oligonucleotide was used at 10 nM, and the buffer was 10 mM lithium cacodylate (pH 7.2), 10 mM KCl, and 90 mM LiCl in a final volume of 50 μL. The oligonucleotide was heated at 90 °C for 5 min and put in ice to anneal. The ligand was added over a range of concentrations between 0 and 80 μM. A competitor, ds26, was also added at 3 or 10 μM. Each experimental condition was tested in triplicate except for the ligand alone with the buffer, which was tested in duplicate. The instrument was programmed to heat the plate for 10 min at 25 °C and measure the fluorescence after 1 min for 5 cycles. The fluorescence of each sample was normalized, and the fluorescence of the ligand alone was subtracted.
(§2) We then addressed the binding of the DBA series to the rLTR4 RNA G4. The FRET melting assay was not appropriate for investigating ligand binding to this RNAs due to its high thermal stability (Tm > 72 °C).[26] We have therefore used a ligand-induced fluorescence quenching assay (FQA) to analyse the interaction of the DBAs with either 5′ or 3′ fluorescently labelled RNAs (Fig. S8). Since planar G4-ligands generally stack on an accessible G-quartet,[94–96] we expect the DBAs to also recognize G4s by stacking interactions. To conduct a fluorescence quenching experiment, a CY5 fluorophore is attached on the 3′ or 5′ end of the RNA. […] Thus, upon interaction of the ligand with the G-quartet, the ligand induces the quenching of the fluorescence emission. This test enables determination of the apparent association constants (Ka) of each DBA with the 5′ or 3′ quartet of the G4 structure (Fig. 4, Table S3). […] A similar difference in G-tetrad binding affinities has previously been observed for TMPyP4 and PhenDC3.[47]
(§3) The fluorescently labeled oligonucleotides were dissolved at a concentration of 10 nM in 10 mM lithium cacodylate buffer (pH 7.2) with 10 mM KCl and 90 mM LiCl. […] Data are the results of at least three independent experiments in which each data point was performed in duplicate.

[2] = system: rLTR4-5′Cy5 (parallel RNA G4); experiment: Ligand-induced fluorescence quenching assay (FQA), rLTR4-5′Cy5
Experimental: as §1, §2, §3

Row | SMILES | Kd (rLTR4 RNA G4; read-out: Kd1 rLTR4) | Kd (rLTR4 RNA G4; read-out: Kd2 rLTR4) | Kd (rLTR4 RNA G4; read-out: Kd3 rLTR4) | Ka rLTR4-3′Cy5 FQA ([1]; +10µM ds26) | Kd ([1]; +10µM ds26) | Ka rLTR4-3′Cy5 FQA ([1]; No ds26) | Kd ([1]; No ds26) | Ka rLTR4-5′Cy5 FQA ([2]; +10µM ds26) | Kd ([2]; +10µM ds26) | Ka rLTR4-5′Cy5 FQA ([2]; No ds26) | Kd ([2]; No ds26)
1 | c1ccc(-[n+]2c3ccc4ccccc4c3cc3c4ccccc4ccc32)cc1 [DBA5] | 4.99 µM | 10 µM | 1.47 µM | 2.5±0.2 10^5 M | 4 ± 0.6 µM | 2.5±0.31 10^5 M | 4 ± 0.3 µM | 1.1±0.04 10^5 M | 9.5 ± 2.6 µM | 1.6±0.07 10^5 M | 6.2 ± 1.4 µM
2 | COc1ccc(-[n+]2c3ccc4cc(OC)ccc4c3cc3c4ccc(OC)cc4ccc32)cc1 [DBA3] | 12.2 µM | 0.14 µM | 31 µM | 1.5±0.09 10^5 M | 6.9 ± 1.1 µM | 1.6±0.11 10^5 M | 6.2 ± 1 µM | 0.9±0.07 10^5 M | 11.1 ± 1.4 µM | 1.2±0.06 10^5 M | 8.7 ± 1.6 µM
3 | COc1ccc2c(ccc3c2cc2c4ccc(OC)cc4ccc2[n+]3-c2ccccc2)c1 [DBA1] | 20.2 µM | 0.55 µM | 22.8 µM | 2.8±0.23 10^5 M | 3.3 ± 0.4 µM | 3.1±0.2 10^5 M | 3.2 ± 0.5 µM | 1.1±0.06 10^5 M | 8.9 ± 1.8 µM | 1.8±0.07 10^5 M | 5.5 ± 1.5 µM
4 | COC(=O)c1ccc(-[n+]2c3ccc4cc(OC)ccc4c3cc3c4ccc(OC)cc4ccc32)cc1 [DBA2] | 10.9 µM | 0.69 µM | – | 1.2±0.08 10^5 M | 8.6 ± 1.3 µM | 1.5±0.06 10^5 M | 6.7 ± 1.5 µM | 0.9±0.03 10^5 M | 11.6 ± 3.8 µM | 1.1±0.03 10^5 M | 9.3 ± 2.9 µM
5 | COc1ccc2c(ccc3c2cc2c4ccc(OC)cc4ccc2[n+]3-c2ccc([N+](=O)[O-])cc2)c1 [DBA4] | 10.4 µM | 0.5 µM | 21.3 µM | 1.9±0.1 10^5 M | 5.3 ± 1.1 µM | 3.0±0.24 10^5 M | 3.3 ± 0.4 µM | 1.2±0.05 10^5 M | 8.4 ± 2.1 µM | 2.3±0.1 10^5 M | 4.4 ± 1 µM

— PMC13334477 (RSC Medicinal Chemistry, 2026)
